Laboratory results published in patent US9856264B2, “Isoquinolinesulfonyl derivative as RHO kinase inhibitor” (MEDSHINE DISCOVERY INC., priority 2014, dated 2018).

The compounds below were run against ROCK kinase (assay: In vitro ROCK kinase inhibition activity evaluation (33P-ATP filter-binding)). Conditions: 1 nM ROCK kinase, 20 μM Long S6 Kinase substrate peptide, 2 h room temperature.
Format: biochemical
Set-up: key to ROCK inhibition activity: 1 μM ≦ + < 5 μM; 0.1 μM ≦ ++ < 1 μM; +++ < 0.1 μM; −− N/A
Protocol: Biological Activity Experiment: In Vitro ROCK Kinase Inhibition Activity Evaluation
Experimental Objective: Test ROCK Inhibition IC50 Value of Invented Compounds
Buffer solution: 20 mM Hepes (pH 7.5), 10 mM MgCl2, 1 mM EGTA, 0.02% Brij35, 0.02 mg/ml BSA, 0.1 mM Na3VO4, 2 mM DTT, 1% DMSO
To a freshly prepared buffer solution was added ROCK substrate Long S6 Kinase substrate peptide, with concentration at 20 μM. 1 nM ROCK kinase was then added, and well stirred. A series of DMSO solution (starting from 10 μM, dilution factor 3) of testing article was added using Echo550. The mixture was incubated for 20 min at room temperature, then was added ^33P-ATP (radioactive intensity 10 μCi/μL) to initiate reaction and further reacted for 2 h at room temperature. The mixture was filtered through P81 ion exchange paper (Whatman #3698-915), and washed by 0.75% phosphoric acid. The intensity of radiation was measured by Filter-Binding method.
The inhibition activity of the testing articles were measured by comparing the residue kinase activity to blank substrate (pure DMSO). Using Prism software ((GraphPad Software, San Diego Calif., USA) to calculate IC50 and curve.

Compound	IC50 [nM]	ROCK inhibition activity
O=S(=O)(c1cccc2cncc(F)c12)N1C[C@H]2CNC[C@H]2C1 [Example 29, 4-fluoro-5-((hexahydropyrrolo[3,4-c]pyrrol-2(1H)-yl)sulfonyl)isoquinoline]	100 to 1000	
O=S(=O)(c1cccc2cncc(F)c12)N1CC2CCCNC2C1 (stereo not shown) [Example 30, 4-fluoro-5-((hexahydro-1H-pyrrolo[3,4-b]pyridin-6(2H)-yl)sulfonyl)isoquinoline]	100 to 1000	
O=S(=O)(c1cccc2cncc(C(F)F)c12)N1C[C@H]2CNC[C@H]2C1 [Example 35, 4-(difluoromethyl)-5-((hexahydropyrrolo[3,4-c]pyrrol-2(1H)-yl)sulfonyl)isoquinoline]		−−
O=S(=O)(c1cccc2cncc(C(F)F)c12)N1CC2CCNCC2C1 (stereo not shown) [Example 36, 4-(difluoromethyl)-5-((hexahydro-1H-pyrrolo[3,4-c]pyridin-2(3H)-yl)sulfonyl)isoquinoline]		−−
Cc1cncc2cccc(S(=O)(=O)N3C[C@@H]4CCN[C@@H]4C3)c12 [Example 38, 5-((hexahydropyrrolo[3,4-d]pyrrol-5 (1H)-yl)sulfonyl)-4-methylisoquinoline]	< 100	
Cc1cncc2cccc(S(=O)(=O)N3CCC4NCCCC43)c12 (stereo not shown) [Example 42, 4-methyl-5-((octahydro-1H-pyrrolo[3,2-b]pyridin-1-yl)sulfonyl)isoquinoline]	< 100	
Cc1cncc2cccc(S(=O)(=O)N3C[C@H]4CNC[C@H]4C3)c12 [Example 43, 5-((hexahydropyrrolo[3,4-c]pyrrol-2(1H)-yl)sulfonyl)-4-methylisoquinoline]	< 100	
Cc1cncc2cccc(S(=O)(=O)N3CC4CCNCC4C3)c12 (stereo not shown) [Example 44, 5-((hexahydro-1H-pyrrolo[3,4-c]pyridin-2(3H)-yl)sulfonyl)-4-methylisoquinoline]	< 100	
Cc1cncc2cccc(S(=O)(=O)N3CCC4NCCCC4C3)c12 (stereo not shown) [Example 45, 6-((4-methylisoquinolin-5-yl)sulfonyl)decahydro-1,6-naphthyridine]	1000 to 5000	
COc1cncc2cccc(S(=O)(=O)N3CCC4NCCCC43)c12 (stereo not shown) [Example 51, 4-methoxy-5-((octahydro-1H-pyrrolo[3,2-b]pyridin-1-yl)sulfonyl)isoquinoline]	1000 to 5000	
COc1cncc2cccc(S(=O)(=O)N3C[C@H]4CNC[C@H]4C3)c12 [Example 52, 5-((hexahydropyrrolo[3,4-c]pyrrol-2(1H)-yl)sulfonyl)-4-methoxyisoquinoline]	1000 to 5000	
COc1cncc2cccc(S(=O)(=O)N3CC4CCNCC4C3)c12 (stereo not shown) [Example 53, 5-((hexahydro-1H-pyrrolo[3,4-c]pyridin-2(3H)-yl)sulfonyl)-4-methoxyisoquinoline]	1000 to 5000	
COc1cncc2cccc(S(=O)(=O)N3CCC4NCCCC4C3)c12 (stereo not shown) [Example 54, 6-((4-methoxyisoquinolin-5-yl)sulfonyl)decahydro-1,6-naphthyridine]	1000 to 5000	
NC12CCC1CN(S(=O)(=O)c1cccc3cnccc13)C2 (stereo not shown) [Example 55, 3-(isoquinolin-5-ylsulfonyl)-3-azabicyclo[3.2.0]heptan-1-amine]	1000 to 5000	
NC12CC1CN(S(=O)(=O)c1cccc3cnccc13)C2 (stereo not shown) [Example 56, 3-(isoquinolin-5-ylsulfonyl)-3-azabicyclo[3.1.0]hexan-1-amine]	100 to 1000	
CCNC12CC1CN(S(=O)(=O)c1cccc3cnccc13)C2 (stereo not shown) [Example 57, N-ethyl-3-(isoquinolin-5-ylsulfonyl)-3-azabicyclo[3.1.0]hexan-1-amine]	1000 to 5000	
